Among the data in PubChem BioAssay AID328 (DTP/NCI, 2004) are T/C values, retold here.

Values joined by “and” are separate entries in the source; they are usually repeats but may differ in a detail not shown here. Equal values may be shown once. Toxic doses and inconclusive results are not listed.

The subject of the experiment is BDF1 mice, P388 leukemia ip, median survival T/C. The experiment in a line: NCI In Vivo Anticancer Drug Screen. Data for tumor model P388 Leukemia (intraperitoneal) in B6D2F1 (BDF1) mice. The conditions noted are these: endpoint: median survival time, higher = longer survival. The gist of the method: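 In tumour-bearing mice, survival after compound treatment is set against the vehicle group and given as a quotient.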

[1] abbreviates: dose: 50.0 mg/kg/injection, schedule: Q04DX003 (ip), vehicle: saline with Tween-80.
Setting [2] is: dose: 100.0 mg/kg/injection, schedule: Q04DX003 (ip), vehicle: saline with Tween-80.
Setting [3] is: dose: 200.0 mg/kg/injection, schedule: Q04DX003 (ip), vehicle: saline with Tween-80.
Setting [4] is: dose: 6.25 mg/kg/injection, schedule: Q01DX009 (ip), vehicle: water.
The mark [5] stands for this setting: dose: 12.5 mg/kg/injection, schedule: Q01DX009 (ip), vehicle: water.
Where [6] appears, read: dose: 25.0 mg/kg/injection, schedule: Q01DX009 (ip), vehicle: water.
[7] abbreviates: dose: 12.5 mg/kg/injection, schedule: Q01DX009 (ip), vehicle: saline.
Setting [8] is: dose: 25.0 mg/kg/injection, schedule: Q01DX009 (ip), vehicle: saline.
The mark [9] stands for this setting: dose: 100.0 mg/kg/injection, schedule: Q01DX009 (ip), vehicle: saline with Tween-80.
The mark [10] stands for this setting: dose: 200.0 mg/kg/injection, schedule: Q01DX009 (ip), vehicle: saline with Tween-80.
The mark [11] stands for this setting: dose: 400.0 mg/kg/injection, schedule: Q01DX009 (ip), vehicle: saline with Tween-80.
The mark [12] stands for this setting: dose: 400.0 mg/kg/injection, schedule: Q04DX003 (ip), vehicle: saline with Tween-80.
Setting [13] is: dose: 50.0 mg/kg/injection, schedule: Q01DX009 (ip), vehicle: saline with Tween-80.

Turning to `COc1cc2c(cc1OC)-c1cc3cc(OC)c(OC)cc3c(CCC(=O)O)[n+]1CC2`, the T/C was 101 % of control (dose: 75.0 mg/kg/injection, schedule: Q01DX009 (ip), vehicle: Klucel (hydroxypropylcellulose) (HPC)) and 101 % of control (dose: 150.0 mg/kg/injection, schedule: Q01DX009 (ip), vehicle: Klucel (hydroxypropylcellulose) (HPC)).

On to `CCCCCC(C)C(=O)CCCC` (stereo not given) (tested in a mixture with another compound), for which the T/C is, setting by setting: under setting [1], 104 % of control; under setting [2], 104 % of control; under setting [3], 100 % of control.

As to `CCOC(=O)Nc1nc(Cl)c(Cl)nc1Cl`, the T/C is 105 % of control (dose: 0.78 mg/kg/injection, schedule: Q01DX009 (ip), vehicle: water); 114 % of control (dose: 1.56 mg/kg/injection, schedule: Q01DX009 (ip), vehicle: water); 96 % of control (dose: 3.12 mg/kg/injection, schedule: Q01DX009 (ip), vehicle: water); 100 % of control and 110 % of control under setting [4]; 90 % of control (dose: 6.25 mg/kg/injection, schedule: Q04DX003 (ip), vehicle: water); 91 % of control and 95 % of control under setting [5]. Also, the T/C is 266 % of control and 102 % of control (dose: 12.5 mg/kg/injection, schedule: Q04DX003 (ip), vehicle: water); 100 % of control under setting [6]; 269 % of control (dose: 25.0 mg/kg/injection, schedule: Q04DX003 (ip), vehicle: water); 87 % of control and 89 % of control (dose: 50.0 mg/kg/injection, schedule: Q01DX009 (ip), vehicle: water); 266 % of control and 116 % of control (dose: 50.0 mg/kg/injection, schedule: Q04DX003 (ip), vehicle: water); 89 % of control and 95 % of control (dose: 100.0 mg/kg/injection, schedule: Q01DX009 (ip), vehicle: water). Besides, the T/C (dose: 200.0 mg/kg/injection, schedule: Q01DX009 (ip), vehicle: water) was 105 % of control and 108 % of control; the T/C (dose: 400.0 mg/kg/injection, schedule: Q01DX009 (ip), vehicle: water) was 118 % of control.

Regarding `O=C(O)C(O)C(O)C(=O)O.O=C(O)C(O)C(O)C(=O)O.[O]=[V].[O]=[V]` (stereo not given), the T/C is 110 % of control (dose: 3.13 mg/kg/injection, schedule: Q01DX009 (ip), vehicle: saline); 90 % of control and 100 % of control (dose: 6.25 mg/kg/injection, schedule: Q01DX009 (ip), vehicle: saline); 100 % of control (dose: 6.25 mg/kg/injection, schedule: Q04DX003 (ip), vehicle: saline); 95 % of control and 100 % of control under setting [7]; 95 % of control and 100 % of control (dose: 12.5 mg/kg/injection, schedule: Q04DX003 (ip), vehicle: saline); 90 % of control and 88 % of control under setting [8]. In addition, the T/C (dose: 25.0 mg/kg/injection, schedule: Q04DX003 (ip), vehicle: saline) is 100 % of control.

`CCCSc1ncnc2nc(C)[nH]c12`: the T/C is, setting by setting: (dose: 0.39 mg/kg/injection, schedule: Q01DX009 (ip), vehicle: saline with Tween-80) 100 % of control; (dose: 0.78 mg/kg/injection, schedule: Q01DX009 (ip), vehicle: saline with Tween-80) 109 % of control; (dose: 1.56 mg/kg/injection, schedule: Q01DX009 (ip), vehicle: saline with Tween-80) 100 % of control and 122 % of control; (dose: 3.13 mg/kg/injection, schedule: Q01DX009 (ip), vehicle: saline with Tween-80) 95 % of control and 100 % of control; (dose: 6.25 mg/kg/injection, schedule: Q01DX009 (ip), vehicle: saline with Tween-80) 103 % of control; (dose: 12.5 mg/kg/injection, schedule: Q01DX009 (ip), vehicle: saline with Tween-80) 103 % of control.

For the compound `CC(C)SC(=O)C[Si](C)(C)C`, the T/C by setting is: under setting [2], 166 % of control; under setting [3], 166 % of control.

With `CC(C(=O)O)C(=O)O.[NH-]CC[NH-].[Pt+2]`, the T/C was 167 % of control (dose: 3.13 mg/kg/injection, schedule: Q01DX009 (ip), vehicle: water); 181 % of control under setting [4]; 90 % of control under setting [5]; 214 % of control under setting [6].

For the compound `NOc1ccc([N+](=O)[O-])cc1[N+](=O)[O-]`, the T/C runs as follows: (dose: 6.25 mg/kg/injection, schedule: Q01DX009 (ip), vehicle: Klucel (hydroxypropylcellulose) (HPC)) 115 % of control; (dose: 12.5 mg/kg/injection, schedule: Q01DX009 (ip), vehicle: Klucel (hydroxypropylcellulose) (HPC)) 95 % of control; (dose: 16.5 mg/kg/injection, schedule: Q01DX009 (ip), vehicle: Klucel (hydroxypropylcellulose) (HPC)) 113 % of control; (dose: 25.0 mg/kg/injection, schedule: Q01DX009 (ip), vehicle: Klucel (hydroxypropylcellulose) (HPC)) 103 % of control and 113 % of control.

Turning to `C1CCCC2(CCC1)OCCO2`, the T/C by setting is: under setting [1], 94 % of control; under setting [9], 109 % of control; under setting [2], 100 % of control; under setting [10], 100 % of control; under setting [3], 115 % of control and 119 % of control; under setting [11], 109 % of control. Besides, under setting [12], the T/C was 112 % of control and 120 % of control.

Take `CC(=O)c1ccccc1C`: the T/C runs as follows: under setting [13], 100 % of control; under setting [1], 100 % of control; under setting [9], 109 % of control; under setting [2], 100 % of control; under setting [10], 95 % of control; under setting [3], 100 % of control.

For `N/C(=N/N=C/c1ccncc1)N[N+](=O)[O-]`, the T/C (dose: 50.0 mg/kg/injection, schedule: Q01DX009 (ip), vehicle: saline) is 90 % of control.

For `COC(CN(C)CC(OC)OC)OC`, the T/C was 90 % of control (dose: 100.0 mg/kg/injection, schedule: Q01DX009 (ip), vehicle: saline); 100 % of control (dose: 200.0 mg/kg/injection, schedule: Q01DX009 (ip), vehicle: saline); 100 % of control (dose: 400.0 mg/kg/injection, schedule: Q01DX009 (ip), vehicle: saline).

For the compound `COc1ccc(N=Cc2ccc3c(c2)OCO3)cc1`, the T/C by setting is: under setting [13], 98 % of control; under setting [9], 100 % of control; under setting [10], 105 % of control; under setting [11], 98 % of control.

`c1ccc(COCC[P+](c2ccccc2)(c2ccccc2)c2ccccc2)cc1`: the T/C (dose: 2.5 mg/kg/injection, schedule: Q01DX010 (ip), vehicle: saline) was 90 % of control; the T/C (dose: 5.0 mg/kg/injection, schedule: Q01DX010 (ip), vehicle: saline) is 100 % of control; the T/C (dose: 10.0 mg/kg/injection, schedule: Q01DX010 (ip), vehicle: saline) is 113 % of control.

Regarding `Cc1c(Cl)cccc1NC(=O)COc1ccc(Cl)cc1Cl`, the T/C is 108 % of control under setting [2], 87 % of control under setting [3] and 95 % of control under setting [12].

With `O=C(O)CN(Cc1ccccc1)Sc1ccccc1[N+](=O)[O-]`, the T/C was 105 % of control (dose: 25.0 mg/kg/injection, schedule: Q04DX003 (ip), vehicle: other); 117 % of control (dose: 50.0 mg/kg/injection, schedule: Q04DX003 (ip), vehicle: other); 117 % of control (dose: 200.0 mg/kg/injection, schedule: Q04DX003 (ip), vehicle: other).

On to `CC(C)(O)C(NC(N)=O)c1ccccc1` (stereo not given), for which the T/C runs as follows: under setting [13], 104 % of control; under setting [9], 101 % of control; under setting [10], 100 % of control.

Take `O=c1c2ccccc2[nH]c2ccccc12`: the T/C is 105 % of control under setting [1], 99 % of control under setting [2], 99 % of control under setting [3] and 96 % of control under setting [12].

With `CCOC(=O)N(C)c1ccc(Cl)cc1C(N)=O`, the T/C is 100 % of control (dose: 100.0 mg/kg/injection, schedule: Q04DX003 (ip), vehicle: Klucel (hydroxypropylcellulose) (HPC)); 94 % of control (dose: 200.0 mg/kg/injection, schedule: Q04DX003 (ip), vehicle: Klucel (hydroxypropylcellulose) (HPC)); 115 % of control (dose: 400.0 mg/kg/injection, schedule: Q04DX003 (ip), vehicle: Klucel (hydroxypropylcellulose) (HPC)).

Take `O=P(N1CCOCC1)(N1CC1)N1CC1`: the T/C reads like this: under setting [7], 251 % of control and 290 % of control; under setting [8], 90 % of control.

With `O=C(O)CCCCCCCCC(=O)O`, the T/C under setting [13] is 98 % of control, the T/C under setting [9] is 98 % of control, the T/C under setting [10] was 94 % of control and the T/C under setting [11] was 93 % of control.

In the case of `Cn1c(N)c(N=Cc2ccc(Cl)cc2)c(=O)n(C)c1=O`, the T/C is 92 % of control under setting [2] and 99 % of control under setting [3].
